Reference: patent publication US20050096350A1, “Halo substituted benzo[b]thiophenes as therapeutic agents” (priority 2003, published 2005)

Molecular target: T1, PI3Kγ (purified recombinant p101/p110γ protein) (Homo sapiens, UniProt P48736)
T1 construct: HA; made in house; host or cells: Spodoptera frugiperda Sf9 cells (baculovirus coinfection)
Assay: PI3Kγ in vitro kinase assay
Format: biochemical
Details: 20 μM ATP, 25 μM PIP2, G protein β1/γ2 subunits
Method: Spodtera frugiperda cells, grown in ESF921 media, were coinfected with baculovirus expressing a glu-tagged p101 and baculovirus expressing an HA-tagged […], at a 3:1 ratio of p101 baculovirus to p110γ baculovirus. Sf9 cells were grown to 1×10^7 total cells/mL in 10 L bioreactors and harvested 48-72 hours post infection. Samples of infected cells were then tested for expression of p101/p110γ PI3 kinase by immunoprecipitation and Western Blot analysis methods (see below).
To purify PI3Kγ, 4 volumes of room temperature hypotonic lysis buffer (1 mM MgCl2, 1 mM DTT, 5 mM EGTA, 1 mM Pefabloc, 0.5 μM aprotinin, 5 μM leupeptin, 2 μM pepstatin, 5 μM E64, pH 8) per gram of cell paste, was poured onto frozen cell pellets with stirring, then lysed in a nitrogen “bomb” at 400 psi (599HC T316, Parr Instrument Co, Moline, Ill.). NaCl was added to 150 mM, and sodium cholate was added to 1% and mixed for another 45 minutes. The lysates were clarified by centrifugation for 25 minutes at 14,000 rpm. The lysates were then loaded over anti-glu-linked Protein-G Sepaharose beads (Covance Research Products, Richmond, Calif.) using 20 mL resin/50 g cell paste. The column was washed with 15 volumes of wash buffer (1 mM DTT, 0.2 mM EGTA, 1 mM Pefabloc, 0.5 μM aprotinin, 5 μM leupeptin, 2 μM pepstatin, 5 μM E64, 150 mM NaCl, 1% sodium cholate, pH 8). PI3Kγ was eluted with 6 column volumes of wash buffer that contain 100 μg/mL of a peptide that competes for binding of the glu tag. The column fractions with the eluted protein (determined by taking OD280 readings) were collected and dialyzed in 0.2 mM EGTA, 1 mM DTT, 1 mM Pefabloc, 5 μM leupeptin, 0.5% sodium cholate, 150 mM NaCl, and 50% glycerol, pH 8. The fractions were stored at −80° C. until further use.
Spodtera frugiperda cells were coinfected with baculovirus expressing a glu-tagged G protein β1 and baculovirus expressing a G protein β2, at a 1:1 ratio of glu-tagged G protein β1 baculovirus to G protein β2 baculovirus. Sf9 cells are grown in 10 L bioreactors and harvested 48-72 hours post infection. Samples of infected cells were tested for G protein β1/β2 expression by Western Blot analysis, as described below. Cell lysates were homogenized and loaded onto a column of glu-tagged beads as in Biological Example 1 and competed off the column with a glu peptide and processed as described in Biological Example 1.
The inhibitory properties of the compounds in Table 1 were assayed in an in vitro PI3K assay. In a 96-well polypropylene plate, each well was spotted with 2 μL of 50 times the desired final concentration of compound in DMSO. Purified recombinant p101/p110γ protein (0.03 μg; ˜2.7 nM) and G protein β1/γ2 subunits (0.09 μg; ˜57.7 nM) for each reaction was combined in the assay buffer (30 mM HEPES, 100 mM NaCl, 1 mM EGTA, and 1 mM DTT). ATP and [γ-^32P-ATP] (0.09 μCi) were added to this mixture so that the final ATP concentration in the reaction was 20 μM. Lipid micelles were formed by sonicating phosphatidylinositol-4,5-diphosphate (PIP2), phosphatidylethanolamine (PE), and Na-cholate in the assay buffer for 10 minutes, adding MgCl2 and incubating on ice for 20 minutes, for final concentrations of 25 μM PIP2, 300 μM PE, 0.02% Na-cholate, and 10 mM MgCl2 in the reaction. The reactions were started by adding equal volumes lipid and enzyme mixture in a total volume of 50 μL, allowed to run for 20 minutes at room temperature, and stopped with 100 μL 75 mM H3PO4. The lipid product was transferred to a glass fiber filter plate and washed with 75 mM H3PO4 several times. The presence of radioactive lipid product (PIP3) was measured by adding Wallac Optiphase mix to each well and counting in a Wallac 1450 Trilux plate reader (PerkinElmer Life Sciences Inc., Boston, Mass. 02118). The IC50 for each compound tested is reported in μM in the Tables above.

T1 sequence (P48736 whole entry, species assumed): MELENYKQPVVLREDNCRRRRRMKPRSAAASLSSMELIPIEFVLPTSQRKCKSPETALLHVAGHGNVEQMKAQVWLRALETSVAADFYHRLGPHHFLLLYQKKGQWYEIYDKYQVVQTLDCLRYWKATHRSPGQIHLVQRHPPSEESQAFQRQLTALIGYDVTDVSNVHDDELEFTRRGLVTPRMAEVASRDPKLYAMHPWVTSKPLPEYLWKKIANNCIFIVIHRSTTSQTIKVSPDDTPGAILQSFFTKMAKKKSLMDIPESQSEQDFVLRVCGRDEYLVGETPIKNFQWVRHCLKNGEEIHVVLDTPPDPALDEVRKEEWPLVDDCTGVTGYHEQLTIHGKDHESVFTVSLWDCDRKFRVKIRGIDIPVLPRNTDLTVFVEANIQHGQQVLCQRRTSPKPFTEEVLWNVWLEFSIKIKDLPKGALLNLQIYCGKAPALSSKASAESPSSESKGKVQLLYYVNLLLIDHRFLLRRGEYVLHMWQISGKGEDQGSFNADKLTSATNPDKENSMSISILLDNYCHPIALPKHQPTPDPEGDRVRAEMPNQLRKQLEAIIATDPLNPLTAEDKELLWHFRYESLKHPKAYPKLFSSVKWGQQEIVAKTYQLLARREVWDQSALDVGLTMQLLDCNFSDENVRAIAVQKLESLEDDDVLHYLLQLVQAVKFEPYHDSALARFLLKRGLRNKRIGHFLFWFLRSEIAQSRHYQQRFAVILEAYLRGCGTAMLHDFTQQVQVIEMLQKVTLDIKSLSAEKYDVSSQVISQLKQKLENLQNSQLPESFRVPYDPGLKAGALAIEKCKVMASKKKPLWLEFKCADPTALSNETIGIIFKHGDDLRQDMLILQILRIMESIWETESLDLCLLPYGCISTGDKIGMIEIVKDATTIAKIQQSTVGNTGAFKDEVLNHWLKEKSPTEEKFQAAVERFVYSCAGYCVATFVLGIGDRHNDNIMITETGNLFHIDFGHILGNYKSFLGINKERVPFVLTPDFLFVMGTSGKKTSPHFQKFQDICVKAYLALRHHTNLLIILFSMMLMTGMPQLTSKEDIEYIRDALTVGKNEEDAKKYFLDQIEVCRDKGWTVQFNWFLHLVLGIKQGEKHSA
T1 sequence (Q8WYR1 whole entry partner, species assumed): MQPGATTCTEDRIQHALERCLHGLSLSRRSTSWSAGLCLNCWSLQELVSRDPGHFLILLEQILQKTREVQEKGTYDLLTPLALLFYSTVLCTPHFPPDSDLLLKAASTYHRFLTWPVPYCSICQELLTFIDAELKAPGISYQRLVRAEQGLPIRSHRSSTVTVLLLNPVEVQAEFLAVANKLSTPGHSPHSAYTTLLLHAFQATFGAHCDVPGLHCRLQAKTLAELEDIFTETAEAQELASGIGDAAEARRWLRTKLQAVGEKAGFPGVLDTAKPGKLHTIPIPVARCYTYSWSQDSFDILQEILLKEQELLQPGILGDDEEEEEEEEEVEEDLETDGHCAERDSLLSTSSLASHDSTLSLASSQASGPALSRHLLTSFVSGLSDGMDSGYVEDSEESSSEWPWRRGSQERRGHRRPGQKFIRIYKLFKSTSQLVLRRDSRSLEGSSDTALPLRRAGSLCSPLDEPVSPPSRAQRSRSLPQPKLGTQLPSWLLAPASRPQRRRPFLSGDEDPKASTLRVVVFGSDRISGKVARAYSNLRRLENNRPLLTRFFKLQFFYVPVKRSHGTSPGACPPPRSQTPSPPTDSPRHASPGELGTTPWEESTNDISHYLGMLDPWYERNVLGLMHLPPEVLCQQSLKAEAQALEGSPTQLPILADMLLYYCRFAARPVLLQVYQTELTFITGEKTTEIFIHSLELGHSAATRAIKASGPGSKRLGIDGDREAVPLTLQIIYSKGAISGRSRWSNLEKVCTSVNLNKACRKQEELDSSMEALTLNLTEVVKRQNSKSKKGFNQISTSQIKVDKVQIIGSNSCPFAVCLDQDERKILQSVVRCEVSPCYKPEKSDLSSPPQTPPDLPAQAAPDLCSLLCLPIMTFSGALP

| SMILES | IC50 [nM] | other results |
| --- | --- | --- |
| COc1cccc(Sc2c(C(=O)Nc3nnn[nH]3)sc3cc(F)c(OC)cc23)c1 [Example 18, 6-Fluoro-5-methoxy-3-(3-methoxy-phenylsulfanyl)-benzo[b]thiophene-2-carboxylic acid (1H-tetrazol-5-yl)-amide] | 470 |  |
| COc1ccc2sc(C(=O)Nc3nnn[nH]3)c(Sc3ccc(O)cc3)c2c1F [Example 22, 4-Fluoro-3-(4-hydroxy-phenylsulfanyl)-5-methoxy-benzo[b]thiophene-2-carboxylic acid (1H-tetrazol-5-yl)-amide] | 2760 |  |
| COc1ccc2sc(C(=O)Nc3nnn[nH]3)c(SC3CCCC3)c2c1F [Example 38, 3-Cyclopentylsulfanyl-4-fluoro-5-methoxy-benzo[b]thiophene-2-carboxylic acid (1H-tetrazol-5-yl)-amide] | 190 |  |
| COc1cc2c(Oc3ccc(C(C)C)cc3)c(C(=O)Nc3nn[nH]n3)sc2cc1F [Example 6, 6-Fluoro-3-(4-isopropyl-phenoxy)-5-methoxy-benzo[b]thiophene-2-carboxylic acid (2H-tetrazol-5-yl)-amide] | 13.5 |  |
| COc1cc2c(OC3CC(C)CC(C)C3)c(C(=O)Nc3nn[nH]n3)sc2cc1F (stereo not shown) [Example 15, 3-(3,5-Dimethyl-cyclohexyloxy)-6-fluoro-5-methoxy-benzo[b]thiophene-2-carboxylic acid (2H-tetrazol-5-yl)-amide] | 2.2 |  |
| COc1cc2c(Oc3ccc(C4CCCCC4)cc3)c(C(=O)Nc3nn[nH]n3)sc2cc1Br [Example 43, 6-Bromo-3-(4-Cyclohexyl-phenoxy)-5-methoxy-benzo[b]thiophene-2-carboxylic acid (2H-tetrazol-5-yl)-amide] |  | IC50 (table b298): 380 nM |
| COc1cc2c(OC3CCCCCC3)c(C(=O)Nc3nn[nH]n3)sc2cc1F [Example 8, 3-Cycloheptyloxy-6-fluoro-5-methoxy-benzo[b]thiophene-2-carboxylic acid (2H-tetrazol-5-yl)-amide] | 3.4 |  |
| COc1cc2c(O[C@H]3CCC[C@@H](C)C3)c(C(=O)Nc3nn[nH]n3)sc2cc1F (racemic) [Example 9, cis-(±)-6-Fluoro-5-methoxy-3-(3-methyl-cyclohexyloxy)-benzo[b]thiophene-2-carboxylic acid (2H-tetrazol-5-yl)-amide] | 3.8 |  |
| COc1ccc2c(SC3CCCC3)c(C(=O)Nc3nnn[nH]3)sc2c1F [Example 39, 3-Cyclopentylsulfanyl-7-fluoro-6-methoxy-benzo[b]thiophene-2-carboxylic acid (1H-tetrazol-5-yl)-amide] |  | IC50 (table b284): 16 nM |
| COc1cc2c(Oc3ccc(Cl)cc3)c(C(=O)Nc3nn[nH]n3)sc2cc1F [Example 1, 3-(4-Chloro-phenoxy)-6-fluoro-5-methoxy-benzo[b]thiophene-2-carboxylic acid (2H-tetrazol-5-yl)-amide] | 76.5 |  |
| COc1cc2c(Oc3ccc(C4CCCCC4)cc3)c(C(=O)Nc3nn[nH]n3)sc2cc1Cl [Example 44, 6-Chloro-3-(4-Cyclohexyl-phenoxy)-5-methoxy-benzo[b]thiophene-2-carboxylic acid (2H-tetrazol-5-yl)-amide] |  | IC50 (table b298): 110 nM |
| COC(=O)c1ccc(Sc2c(C(=O)Nc3nnn[nH]3)sc3ccc(OC)c(F)c23)cc1 [Example 26, 4-[4-Fluoro-5-methoxy-2-(1H-tetrazol-5-ylcarbamoyl)-benzo[b]thiophen-3-ylsulfanyl]-benzoic acid methyl ester] | 20000 |  |
| COc1ccc(Sc2c(C(=O)Nc3nnn[nH]3)sc3ccc(OC)c(F)c23)cc1 [Example 33, 4-Fluoro-5-methoxy-3-(4-methoxy-phenylsulfanyl)-benzo[b]thiophene-2-carboxylic acid (1H-tetrazol-5-yl)-amide] | 19400 |  |
